The source of these data is patent US20200338028A1, “BENZENESULFONAMIDE DERIVATIVES AND METHOD FOR MODULATING LIPID RAFT” (Gongwin Biopharm Co., Ltd., priority 2017, published 2020).

What all share (format): cell-based, human
Test [1] relates to DU-145 cells. Briefly: colony formation (clonogenic) assay. The note with it: DU-145, 10 days, FIG. 1B. As to the method: To assay the anchorage-dependent clonogenic effect, each individual PC-3 and DU-145 cells (150 cells/well) were seeded in a 6-well plate. After a 10-day treatment with p-TSA, the cell colonies were rinsed with phosphate-buffered saline (PBS), stained with 0.4% (w/v) crystal violet dissolved in 20% methanol, and lysed by 50 mM sodium citrate dissolved in 50% ethanol. The absorbance was read at a wavelength of 595 nm.

Test [2] deals with DU-145 cells. The test can be described thus: CFSE staining, flow cytometric proliferation index. The note with it: DU-145, 48 h. As to the method: (§1) The anti-proliferative effect was further examined by CFSE staining. CFSE is a fluorescent cell staining dye for cell-tracking, and it was conjugated to intracellular proteins and was evenly inherited by divided cells after cell proliferation. Consequently, the fluorescence-staining was distributed to later generations of cells with the passage of time. The process for CFSE staining was performed as follows. CFSE was dissolved in DMSO to constitute a storage solution of 10 mM and was kept at −20° C. until use. The PC-3 and DU-145 cells were adjusted to a density of 10^6 cells/ml and were treated with CFSE at a final concentration of 10 μM in tubes. After incubation at 37° C. for 10 min, labeling was blocked by the addition of RPMI medium with 10% FBS. The tubes were placed on ice for 5 min and then washed. After centrifugation of the tubes, the cells were seeded in RPMI medium with 10% FCS in the absence or presence of p-TSA for 48 h at 37° C. under 5% CO2/95% air condition. The fluorescence intensity was determined by flow cytometric analysis. The cell proliferation was assessed by monitoring the decrease in label intensity in daughter cells. The proliferation index and the cell populations of parent or different generations were calculated by using Modfit LT Version 3.2 and WinList Version 5.0 software.
In general terms: In flow cytometry, cells or beads pass a laser one at a time.

In test [3] the test system is PC-3 cells. Briefly: CFSE staining, flow cytometric proliferation index. Particulars: PC-3, 48 h. Here is the method: as §1
Test [4] has as its system DU-145 cells. The test can be described thus: propidium iodide staining, cell cycle distribution by flow cytometry. Particulars: DU-145, 24 h, FIG. 2A. As to the method: (§2) Flow cytometric analysis was performed as follows. Cells were harvested by trypsinization, fixed with 70% (v/v) alcohol at 4° C. for 30 min and washed with PBS. After centrifugation, the cells were incubated in phosphate-citric acid buffer (0.2 mol/l NaHPO4, 0.1 mol/l citric acid, pH 7.8) for 30 min at room temperature. The cells were then centrifuged and resuspended with 0.5 ml propidium iodide (PI) solution containing Triton X-100 (0.1% v/v), RNase (100 μg/ml) and PI (80 μg/ml). DNA content was analyzed with the FACScan and CellQuest software (Becton Dickinson, Mountain View, Calif., United States).

In test [5] the test system is PC-3 cells. The test is described as above. The note with it: PC-3, 24 h, FIG. 2A. Here is the method:
as §2

The subject of test [6] is DU-145 cells. Briefly: JC-1 staining, mitochondrial membrane potential. The note with it: DU-145, 24 h, JC-1, FIG. 2B. Here is the method: (§3) Mitochondria generate the majority of ATP to synthesize bioactive components such as proteins, lipids and nucleotides for cell growth and proliferation. The stress onto mitochondria and interference with ATP production have shown to induce cell cycle arrest. Measurement of mitochondrial membrane potential (ΔΨm) was performed as follows. JC-1, a mitochondrial dye staining mitochondria in living cells in a membrane potential-dependent fashion, was used to determine the mitochondrial membrane potential (ΔΨm). PC-3 and DU145 cells were treated with or without p-TSA. Thirty minutes before the termination of incubation, the cells were incubated with JC-1 (final concentration of 5 μM) at 37° C. for 30 min. The cells were finally harvested, and the accumulation of JC-1 was determined using flow cytometric analysis. […] An increase in the permeability of the outer mitochondrial membrane that leads to the release of apoptogenic factors is the key to cell apoptosis. Mitochondrial membrane permeability is directly controlled by Bcl-2 family of proteins.

For test [7], the system named is PC-3 cells. Briefly: JC-1 staining, mitochondrial membrane potential. The note with it: PC-3, 24 h, JC-1, FIG. 2B. Here is the method: as §3
Test [8] concerns DU-145 cells. The test can be described thus: lipid raft isolation (sucrose gradient) and Western blot of raft-associated kinases. The note with it: DU-145, 6 mM p-TSA, 2 h. The source says: (§4) Lipid rafts are plasma membranes of cells containing glycosphingolipids and a number of receptors arranged in specific glycolipoprotein microdomains which serve as organizing centers to gather signaling molecules, membrane fluid and protein trafficking for a variety of cellular processes. […] To examine the effect of lipid raft on p-TSA action, lipid rafts were isolated from whole cells by sucrose gradient fractionation with subsequent analysis of several serine/threonine kinases localization in raft fractions by immunoblotting. The detailed method for lipid raft isolation was performed as follows. Lipid rafts were isolated using lysis conditions and centrifugation on discontinuous sucrose gradients. Briefly, after the treatment of cells with or without p-TSA, the cells were washed with ice-cold PBS and lysed for 30 min on ice with 1% Triton X-100 in TNEV buffer (10 mM Tris-HCl, pH 7.5, 150 mM NaCl, 5 mM EDTA, 1 mM Na3VO4 and 1 mM PMSF). Cells were homogenized with 15 strokes with a Biovision tissue homogenizer. After centrifuging at 200 g for 8 min, the nuclei and cellular debris were pelleted and 400 μl supernatant was mixed with 400 μl 85% (w/v) sucrose in TNEV buffer, and then transferred to the bottom of a Beckman 13×51 mm centrifuge tube. The diluted lysate was overlaid with 2.4 ml 35% (w/v) sucrose in TNEV buffer and finally 1.4 ml 5% (w/v) sucrose in TNEV buffer. The samples were centrifuged in an SW55 rotor at 200,000 g for 18 h at 4° C. in a Beckman Optima L100K ultracentrifuge (Beckman Instruments, Palo Alto, Calif., United States). Then, fractions in each volume of 350 μl were collected from the top gradient. 15 μl of each fraction was subjected to Western blot analysis to determine the location of target proteins in the discontinuous sucrose gradient.
For orientation: A western blot detects proteins with antibodies after separation by electrophoresis.

Test [9] has as its system PC-3 cells. Described as above. Particulars: PC-3, 6 mM p-TSA, 2 h.
Excerpt: as §4

As for `Cc1ccc(S(N)(=O)=O)cc1` [p-TSA, para-toluenesulfonamide], the “anti-proliferative effect, clonogenic assay” value in the test on DU-145 cells [1] is “long-term anti-proliferative effect”. Further, the “proliferation index based on CFSE staining” value with DU-145 cells [2] and in the test on PC-3 cells [3] was “concentration-dependent inhibition” throughout. Moreover, the cell apoptosis result in the test with DU-145 cells [4] and with PC-3 cells [5] was “accelerated cell apoptosis” each time. Moreover, the “distribution of cell populations in cell cycle phases” value in the test on DU-145 cells [4] is “accumulation of both PC-3 cells and DU-145 cells in G1 phase”; in the test with PC-3 cells [5] it was “accumulation of both PC-3 cells and DU-145 cells in G1 phase”. The mitochondrial membrane potential result in the test with DU-145 cells [6] and with PC-3 cells [7] was “concentration-dependent decrease” throughout. In addition, the “expressions of raft-associated total and phosphorylated kinases (Akt, mTOR, p70S6K)” value with DU-145 cells [8] and with PC-3 cells [9] was “decreased expressions” in each case. In addition, the “raft-associated phosphorylated p70S6K expression” value with DU-145 cells [8] and in the test on PC-3 cells [9] was “completely abolished” each time.
